{"source": "patent US8546380B2", "about": "“Aminodihydrothiazine derivatives” (Shionogi & Co., Ltd., priority 2005, dated 2013)"}
{"molecular_target": "recombinant human BACE-1 protein (Homo sapiens (Human), UniProt P56817)", "sequence (P56817 46-501)": "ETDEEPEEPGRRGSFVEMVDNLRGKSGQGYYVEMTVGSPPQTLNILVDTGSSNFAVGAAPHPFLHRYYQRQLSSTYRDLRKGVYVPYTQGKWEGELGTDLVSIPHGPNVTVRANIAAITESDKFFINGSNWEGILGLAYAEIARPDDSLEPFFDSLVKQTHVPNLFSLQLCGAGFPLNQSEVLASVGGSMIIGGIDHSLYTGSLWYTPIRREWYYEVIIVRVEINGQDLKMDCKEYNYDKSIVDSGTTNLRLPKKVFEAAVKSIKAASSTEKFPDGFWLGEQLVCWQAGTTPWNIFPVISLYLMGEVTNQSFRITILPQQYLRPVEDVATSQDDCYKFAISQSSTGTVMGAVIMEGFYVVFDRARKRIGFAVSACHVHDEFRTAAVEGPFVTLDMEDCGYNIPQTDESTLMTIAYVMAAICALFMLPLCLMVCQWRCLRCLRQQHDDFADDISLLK", "test": "Measurement of Inhibition of β-Secretase Activity", "assay_type": "biochemical", "details": "fluorescence-quenched peptide substrate 18 nM, BACE-1 7.4 nM, 3 h at 30° C., pH5.0; read-out: IC50 value", "protocol": "(§1) Zero point five μL of the test compounds (dissolved in N,N′-dimethylsulfoxide) were incubated with 48.5 μL of the fluorescence-quenched peptide substrate solution (Biotin-XSEVNLDAEFRHDSGC-Eu:X=ε-amino-n-capronic acid, Eu=Europium cryptate) and 1 μL of recombinant human BACE-1 protein (R&D systems) for 3 h at 30° C. in the 96 well half-area plate (black color plate, Costar). The substrate peptide was synthesized by reacting with Biotin-XSEVNLDAEFRHDSGC (Peptide Institute) and Cryptate TBPCOOH mono SMP (CIS bio international). […] The enzymatic reaction was performed in sodium acetate buffer (50 mM sodium acetate (pH5.0), 0.008% Triton X-100). After the reaction, a 50 μL of 8.0 μg/mL Streptavidin-XL665 (CIS bio international) dissolved in phosphate buffer (150 mM K2HPO4—KH2PO4 (pH 7.0), 0.008% Triton X-100, 0.8 M KF) was add to each well and incubated for 1 h at 30° C.", "units": {"IC50": "µM"}}
{"smiles": "CC1(c2cccc(C(=O)Nc3nc4ccccc4s3)c2)CCSC(N)=N1", "note": "(stereo not shown) [Compound 708]", "IC50": "< 100"}
{"smiles": "CC1(c2cccc(NC(=O)c3ccccc3C#N)c2)CCSC(N)=N1", "note": "(stereo not shown) [Compound 711]", "IC50": "< 100"}
{"smiles": "Cc1ccc(CO/N=C/c2cccc(C3(C)CCSC(N)=N3)c2)cc1", "note": "(stereo not shown) [Compound 719]", "IC50": "< 100"}
{"smiles": "CC1(c2cccc(OCC(=O)Nc3ccc(Cl)c4ccccc34)c2)CCSC(N)=N1", "note": "(stereo not shown) [Compound 723]", "IC50": "< 100"}
{"smiles": "CC1(c2cc(NC(=O)c3ccco3)cc(-c3ccc(Cl)cc3)c2)CCSC(N)=N1", "note": "(stereo not shown) [Compound 725]", "IC50": "< 100"}
{"smiles": "CC1(c2cccc(NC(=O)c3ccc([N+](=O)[O-])cn3)c2)CCSC(N)=N1", "note": "(stereo not shown) [Compound 730]", "IC50": "< 100"}
{"smiles": "CC1=NC(C)(c2cccc(CCC(=O)Nc3ccccc3)c2)CCS1", "note": "(stereo not shown) [Compound 732]", "IC50": "< 100"}
{"smiles": "Cc1ccc(NC(=O)COc2cccc(C3(C)CCSC(N)=N3)c2)cc1", "note": "(stereo not shown) [Compound 746]", "IC50": "< 100"}
{"smiles": "CC1(c2cccc(NC(=O)c3ccc(-c4ccccc4)cc3)c2)CCSC(N)=N1", "note": "(stereo not shown) [Compound 761]", "IC50": "< 100"}
{"smiles": "CC1(c2cccc(NC(=O)c3cc([N+](=O)[O-])ccn3)c2)CCSC(N)=N1", "note": "(stereo not shown) [Compound 770]", "IC50": "< 100"}
{"smiles": "CC1(c2cccc(NC(=O)c3cc(Cl)cc(Cl)c3)c2)CCSC(N)=N1", "note": "(stereo not shown) [Compound 775]", "IC50": "< 100"}
{"smiles": "COc1ccc(C(=O)Nc2cccc(C3(C)CCSC(N)=N3)c2)nc1", "note": "(stereo not shown) [Compound 781]", "IC50": "< 100"}
{"smiles": "CCn1c2ccccc2c2cc(NC(=O)COc3cccc(C4(C)CCSC(N)=N4)c3)ccc21", "note": "(stereo not shown) [Compound 787]", "IC50": "< 100"}
{"smiles": "CC1(c2cccc(NC(=O)c3cc(CCCO)on3)c2)CCSC(N)=N1", "note": "(stereo not shown) [Compound 788]", "IC50": "< 100"}
{"smiles": "COc1ccc(NC(=O)/C=C/c2cccc(C3(C)CCSC(N)=N3)c2)cc1", "note": "(stereo not shown) [Compound 790]", "IC50": "< 100"}
{"smiles": "CC1(c2cccc(NC(=O)c3cncs3)c2)CCSC(N)=N1", "note": "(stereo not shown) [Compound 791]", "IC50": "< 100"}
{"smiles": "CC(=O)Nc1ccc(C(=O)Nc2cccc(C3(C)CCSC(N)=N3)c2)nc1", "note": "(stereo not shown) [Compound 792]", "IC50": "< 100"}
{"smiles": "CC1(c2cccc(NC(=O)c3ccc4c(c3)OCO4)c2)CCSC(N)=N1", "note": "(stereo not shown) [Compound 796]", "IC50": "< 100"}
{"smiles": "CC1(c2cccc(NC(=O)c3ccc(NCc4ccccn4)cn3)c2)CCSC(N)=N1", "note": "(stereo not shown) [Compound 797]", "IC50": "< 100"}
{"smiles": "Cc1cc(Cl)cnc1C(=O)Nc1cccc(C2(C)CCSC(N)=N2)c1", "note": "(stereo not shown) [Compound 802]", "IC50": "< 100"}
{"smiles": "CCCCNC(=O)c1ccc(C2(C)CCSC(N)=N2)s1", "note": "(stereo not shown) [Compound 803]", "IC50": "< 100"}
{"smiles": "CC1(c2cccc(NC(=O)CCc3ccccc3)c2)CCSC(N)=N1", "note": "(stereo not shown) [Compound 808]", "IC50": "< 100"}
{"smiles": "CCOc1ccc(NC(=O)COc2cccc(C3(C)CCSC(N)=N3)c2)cc1", "note": "(stereo not shown) [Compound 809]", "IC50": "< 100"}
{"smiles": "CC1(c2cccc(NC(=O)CCNC(=O)c3ccc(F)cn3)c2)CCSC(N)=N1", "note": "(stereo not shown) [Compound 816]", "IC50": "< 100"}
{"smiles": "CC1(c2cccc(NC(=O)c3ccc(C#N)nc3)c2)CCSC(N)=N1", "note": "(stereo not shown) [Compound 819]", "IC50": "< 100"}
{"smiles": "CC1(c2cc(NC(=O)c3ncc(Cl)cc3N)ccc2F)CCSC(N)=N1", "note": "(stereo not shown) [Compound 820]", "IC50": "< 100"}
{"smiles": "CC1(c2cccc(OCC(=O)Nc3nccs3)c2)CCSC(N)=N1", "note": "(stereo not shown) [Compound 824]", "IC50": "< 100"}
{"smiles": "CC1(c2cccc(OCCc3ccccc3)c2)CCSC(N)=N1", "note": "(stereo not shown) [Compound 833]", "IC50": "< 100"}
{"smiles": "CC1(c2cc(NC(=O)c3ccc(F)cn3)cc(S(C)(=O)=O)c2)CCSC(N)=N1", "note": "(stereo not shown) [Compound 836]", "IC50": "< 100"}
{"smiles": "CSc1ncccc1C(=O)Nc1cccc(C2(C)CCSC(N)=N2)c1", "note": "(stereo not shown) [Compound 847]", "IC50": "< 100"}
{"smiles": "CC1(c2cccc(NC(=O)c3ccc(F)nc3)c2)CCSC(N)=N1", "note": "(stereo not shown) [Compound 850]", "IC50": "< 100"}
{"smiles": "CC1(c2cccc(NC(=O)C(Cl)Cl)c2)CCSC(N)=N1", "note": "(stereo not shown) [Compound 861]", "IC50": "< 100"}
{"smiles": "CC1(c2cccc(NC(=O)c3ccc(Cl)nc3Cl)c2)CCSC(N)=N1", "note": "(stereo not shown) [Compound 865]", "IC50": "< 100"}
{"smiles": "CC1(c2cccc(NC(=O)C(=O)Nc3ccc(Cl)cn3)c2)CCSC(N)=N1", "note": "(stereo not shown) [Compound 866]", "IC50": "< 100"}
{"smiles": "Cc1ccc(CCNc2cccc(C3(C)CCSC(N)=N3)c2)cc1", "note": "(stereo not shown) [Compound 876]", "IC50": "< 100"}
{"smiles": "CC1(c2cccc(NC(=O)Nc3ccc(Br)cc3)c2)CCSC(N)=N1", "note": "(stereo not shown) [Compound 887]", "IC50": "< 100"}
{"smiles": "CC1(c2cc(NC(=O)c3cc[nH]n3)ccc2F)CCSC(N)=N1", "note": "(stereo not shown) [Compound 893]", "IC50": "< 100"}
{"smiles": "CC1(c2cccc(NC(=O)c3cc(CO)on3)c2)CCSC(N)=N1", "note": "(stereo not shown) [Compound 894]", "IC50": "< 100"}
{"smiles": "CC1(c2cccc(NC(=O)c3ccc(OC(F)F)cc3)c2)CCSC(N)=N1", "note": "(stereo not shown) [Compound 905]", "IC50": "< 100"}
{"smiles": "COc1cnc(C(=O)Nc2cccc(C3(C)CCSC(N)=N3)c2)c(N)n1", "note": "(stereo not shown) [Compound 906]", "IC50": "< 100"}
{"smiles": "Cc1cccc2cc(C(=O)Nc3cccc(C4(C)CCSC(N)=N4)c3)[nH]c12", "note": "(stereo not shown) [Compound 908]", "IC50": "< 100"}
{"smiles": "COc1ccc(CC(=O)NCc2cccc(C3(C)CCSC(N)=N3)c2)cc1", "note": "(stereo not shown) [Compound 910]", "IC50": "< 100"}
{"smiles": "CCc1ccc(C(=O)Nc2cccc(C3(C)CCSC(N)=N3)c2)cc1", "note": "(stereo not shown) [Compound 919]", "IC50": "< 100"}
{"smiles": "CC1(c2cccc(OCC(=O)Nc3nc4ccccc4s3)c2)CCSC(N)=N1", "note": "(stereo not shown) [Compound 922]", "IC50": "< 100"}
{"smiles": "CCc1cc(NC(=O)c2ccc(C)cc2)cc(C2(C)CCSC(N)=N2)c1", "note": "(stereo not shown) [Compound 928]", "IC50": "< 100"}
{"smiles": "CC1(c2cccc(NC(=O)c3cccc(Cl)c3F)c2)CCSC(N)=N1", "note": "(stereo not shown) [Compound 932]", "IC50": "< 100"}
{"smiles": "CCOC(=O)C#Cc1cccc(C2(C)CCSC(N)=N2)c1", "note": "(stereo not shown) [Compound 933]", "IC50": "< 100"}
{"smiles": "CC1(c2cc(NC(=O)c3cc4cc(OC(F)(F)F)ccc4[nH]3)ccc2F)CCSC(N)=N1", "note": "(stereo not shown) [Compound 939]", "IC50": "< 100"}
{"smiles": "CCN(C(=O)c1ccc(Cl)cn1)c1cccc(C2(C)CCSC(N)=N2)c1", "note": "(stereo not shown) [Compound 941]", "IC50": "< 100"}
{"smiles": "COc1ccc(NC(=O)C(F)(F)Oc2cccc(C3(C)CCSC(N)=N3)c2)cc1", "note": "(stereo not shown) [Compound 944]", "IC50": "< 100"}
{"smiles": "CC1(c2cc(F)cc(NC(=O)c3ncccc3C(N)=O)c2)CCSC(N)=N1", "note": "(stereo not shown) [Compound 947]", "IC50": "< 100"}
{"smiles": "CC1(c2cccc(NC(=O)c3ccc(Br)cc3)c2)CCSC(N)=N1", "note": "(stereo not shown) [Compound 959]", "IC50": "< 100"}
{"smiles": "CC1(c2cccc(NCCc3ccc(F)cc3)c2)CCSC(N)=N1", "note": "(stereo not shown) [Compound 966]", "IC50": "< 100"}
{"smiles": "Cc1ccc(C(=O)Nc2cc(Br)cc(C3(C)CCSC(N)=N3)c2)cc1", "note": "(stereo not shown) [Compound 971]", "IC50": "< 100"}
{"smiles": "COc1cnc(C(=O)Nc2cccc(C3(C)CCSC(N)=N3)c2)c(OC)n1", "note": "(stereo not shown) [Compound 984]", "IC50": "< 100"}
{"smiles": "CC1(c2cccc(NC(=O)c3cc(Br)ccc3Cl)c2)CCSC(N)=N1", "note": "(stereo not shown) [Compound 986]", "IC50": "< 100"}
{"molecular_target": "recombinant human BACE-1 protein (Homo sapiens (Human), UniProt P56817)", "test": "Measurement of Inhibition of β-Secretase Activity", "assay_type": "biochemical", "details": "recombinant human BACE-1 protein, 3 h at 30° C., pH5.0; read-out: IC50 value", "protocol": "as §1", "units": {"IC50": "µM"}}
{"smiles": "CC1(c2cc(Cl)cc(NC(=O)c3ccc(Cl)cn3)c2)CCSC(N)=N1", "note": "(stereo not shown) [Compound 739]", "IC50": 0.049}
{"smiles": "CC1(c2cccc(NCc3ccc(Cl)cc3)c2)CCSC(N)=N1", "note": "(stereo not shown) [Compound 753]", "IC50": 5.6}
{"smiles": "CC1(c2cc(Br)cc(NC(=O)c3ccco3)c2)CCSC(N)=N1", "note": "(stereo not shown) [Compound 786]", "IC50": 0.156}
{"smiles": "CC1(c2ccc(F)c(NC(=O)c3ccc4ccccc4n3)c2)CCSC(N)=N1", "note": "(stereo not shown) [Compound 799]", "IC50": 6.7}
{"smiles": "CC1(c2cc(Cl)cc(NC(=O)c3ccco3)c2)CCSC(N)=N1", "note": "(stereo not shown) [Compound 822]", "IC50": 0.243}
{"smiles": "CC1(c2cc(Cl)cc(NC(=O)c3cc4ccccc4s3)c2)CCSC(N)=N1", "note": "(stereo not shown) [Compound 832]", "IC50": 0.222}
{"smiles": "COCc1cc(NC(=O)c2ccc(F)cc2)cc(C2(C)CCSC(N)=N2)c1", "note": "(stereo not shown) [Compound 896]", "IC50": 8.5}
{"smiles": "CC1(c2cccc(NC(=O)c3nc4ccccc4s3)c2)CCSC(N)=N1", "note": "(stereo not shown) [Compound 912]", "IC50": 0.175}
